Laboratory results reported in US5851782A, “Inhibitors of ceramidase” (Duke University, priority 1996, dated 1998).

Key:
alkaline ceramidase = test: Alkaline ceramidase activity in vitro at pH 9.0; assay type: biochemical, human; conditions: for use as substrate by alkaline ceramidase: 50 μM tritium-labeled substrate, HL-60 preparation
Protocol: Measurement of ceramidase activity in HL-60 cells. Ceramidase activity in HL-60 cells was measured by a modification of the method of Gatt and Yavin (Methods Enzymol. 14:139 (1969)). Cells were disrupted by sonication in 0.25M sucrose, 1 mM EDTA, and centrifuged at 10,000×g for 10 min after which the supernatant was centrifuged at 100,000×g for 60 min. Ten μl of 1 mM ceramide substrate ([^3 H]C16 -ceramide) was mixed with 100 μl of Triton X-100 (0.1%) in chloroform/methanol, 2:1, and 100 μl of 0.2% sodium cholate in chloroform/methanol, 2:1, after which the solvent was evaporated under N2 at 70° C. To this mixture, 30 μl of water was added and the tubes were heated for 5 s in an 80° C. water bath and then put on ice. Fifty μl of the appropriate buffer depending on desired pH was added followed by 20 μl of 50 mM MgCl2 and 100 μl of cell extract. In experiments using inhibitors, the desired inhibitor was added in ethanol either with the substrate or directly to the final solution. The reaction mixture was incubated for 1 h at 37° C. The ^3 H-fatty acid products of ceramidase were separated by the addition of 2 ml of Dole's solution (isopropyl alcohol, heptane, NaOH), 1.2 ml of heptane, and 1 ml of water. After vortexing and centrifugation, the upper phase was discarded and the lower phase was washed twice with heptane and the upper phase discarded each time. Finally, 1 ml of 1N H2 SO4, and 2 ml of heptane were added, and after vortexing and centrifugation the upper phase was transferred for counting by liquid scintillation.
In order to evaluate the interactions of D- and L-e-MAPP with ceramidase, in vitro studies we conducted using cytosolic and membrane fractions from HL-60 cells. Initially, ceramidase activity was examined for pH dependence using tritium-labeled C16 -ceramide as substrate. […] The alkaline ceramidase activity was very similar to that described in fibroblasts and cerebellar tissue (Sugita et al, Biochim. Biophys. Acta 398:125 (1975), Wertz and Downing, FEBS Lett. 268:110 (1990)). In initial studies, the ability of this ceramidase to utilize D-e- and L-e-MAPP as substrates was investigated. […] These studies corroborate the cellular metabolism studies showing that L-e-MAPP is a substrate for ceramidase in vitro and in cells.
Next, the ability of D- and L-e-MAPP to interfere with hydrolysis of C16 -ceramide by ceramidase at pH 4.5 and 9.0 was evaluated. Inhibition of ceramidase activity by D-e-MAPP was compared to that by N-oleoylethanolamine, a putative inhibitor of acid ceramidase (Sugita et al, Biochim. Biophys. Acta 398:125 (1975)). […] The effects of N-oleoylethanolamine are consistent with the previously reported Ki of 700 μM (Sugita et al, Biochim. Biophys. Acta 398:125 (1975)). […] In contrast, D-e-MAPP was a relatively poor inhibitor of acid ceramidase with less than 10% inhibition of acid ceramidase at 50 μM (FIG. 6C).

acidic sphingomyelinase = target: T1, acidic sphingomyelinase (Homo sapiens, UniProt P17405); test: Acidic sphingomyelinase activity in vitro; assay type: biochemical
T1 sequence (P17405 47-631): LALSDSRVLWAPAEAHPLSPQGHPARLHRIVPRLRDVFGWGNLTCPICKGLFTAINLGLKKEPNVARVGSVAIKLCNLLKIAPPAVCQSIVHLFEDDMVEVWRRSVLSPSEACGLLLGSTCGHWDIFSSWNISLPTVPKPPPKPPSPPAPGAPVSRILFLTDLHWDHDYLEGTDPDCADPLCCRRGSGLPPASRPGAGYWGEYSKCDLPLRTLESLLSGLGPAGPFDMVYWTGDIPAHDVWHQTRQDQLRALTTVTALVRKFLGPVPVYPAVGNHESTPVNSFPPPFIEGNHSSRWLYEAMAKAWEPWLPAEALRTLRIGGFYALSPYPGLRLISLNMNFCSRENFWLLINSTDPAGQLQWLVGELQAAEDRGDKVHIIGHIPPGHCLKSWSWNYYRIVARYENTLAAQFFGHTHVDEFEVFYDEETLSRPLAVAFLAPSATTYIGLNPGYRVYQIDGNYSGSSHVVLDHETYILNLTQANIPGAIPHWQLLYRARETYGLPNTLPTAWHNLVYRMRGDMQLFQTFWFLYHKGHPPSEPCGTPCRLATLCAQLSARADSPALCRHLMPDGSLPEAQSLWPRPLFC
Source text: (§1) In addition to ceramidase, inhibition of cerebroside synthase and sphingomyelin synthase or stimulation of sphingomyelinase or cerebrosidase could result in elevations in endogenous ceramide levels. Therefore, the effects of D- and L-e-MAPP were examined on these enzyme activities in vitro and in cells.

[1] = tested on: endogenous levels of sphingomyelin; test: Endogenous sphingomyelin levels in cells; assay type: cell-based
Source text: as §1

[2] = tested on: endogenous ceramide levels in HL-60 cells; conditions: HL-60, TLC of ceramide phosphates
Protocol: Ceramide and diacylglycerol levels were measured on total liquid extracts using the diacylglycerol kinase assay (Jayadev et al, J. Biol. Chem. 270:2047 (1995)).
Therefore, HL-60 cells were treated with 5 μM D-e-MAPP, ethanol vehicle or L-e-MAPP for 0-24 h. At the indicated time points (FIG. 4A), total lipids were extracted and endogenous ceramide levels were measured by the Escherichia coli diacylglycerol kinase assay.
The upper spot of ceramide phosphate co-migrated with synthetic D-erythro-C18 dihydroceramide phosphate whereas the lower spot co-migrated with D-erythro-C18 ceramide phosphate.

β-glucosidase = target: T2, β-glucosidase (Homo sapiens, UniProt P04062); test: Glucocerebrosidase assay in vitro; assay type: biochemical
T2 sequence (P04062 40-536): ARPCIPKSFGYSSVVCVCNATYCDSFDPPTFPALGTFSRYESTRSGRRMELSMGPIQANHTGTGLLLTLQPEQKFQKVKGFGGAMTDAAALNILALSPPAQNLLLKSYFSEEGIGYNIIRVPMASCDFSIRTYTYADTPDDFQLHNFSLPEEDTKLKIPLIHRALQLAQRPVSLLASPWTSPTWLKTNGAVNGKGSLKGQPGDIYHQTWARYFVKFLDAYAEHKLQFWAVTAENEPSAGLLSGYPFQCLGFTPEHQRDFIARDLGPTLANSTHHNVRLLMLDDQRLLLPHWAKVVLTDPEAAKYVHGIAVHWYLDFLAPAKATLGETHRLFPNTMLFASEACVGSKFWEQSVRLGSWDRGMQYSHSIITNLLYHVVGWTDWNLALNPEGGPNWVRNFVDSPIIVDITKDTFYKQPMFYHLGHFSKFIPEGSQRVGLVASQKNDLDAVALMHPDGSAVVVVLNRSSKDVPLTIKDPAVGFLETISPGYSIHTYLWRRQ
Protocol: Glucocerebrosidase and glucocerebroside synthase assays. In vitro assays for gluccerebrosidase and for cerebroside synthase were performed as described (Abe et al, J. Biochem. (Tokyo) 11:191 (1992)).
as §1

| SMILES | use as substrate by alkaline ceramidase (alkaline ceramidase) | inhibition of alkaline ceramidase in vitro (alkaline ceramidase; final concentration of 5 μM) | IC50 (alkaline ceramidase; pH 9.0, 50 μM C16-ceramide substrate) | effect on activity of acidic sphingomyelinase (acidic sphingomyelinase) | effect on endogenous levels of sphingomyelin [1] | selectivity of increase, ceramide versus dihydroceramide [2] | effect on activity of β-glucosidase (β-glucosidase) |
| --- | --- | --- | --- | --- | --- | --- | --- |
| CCCCCCCCCCCCCC(=O)N[C@H](C)[C@@H](O)c1ccccc1 [D-e-MAPP, D-erythro-2-(N-myristolyamino)-1-phenyl-1-propanol] | not substrate for the alkaline ceramidase | approximately 60% | 1000 to 5000 nM | neither D- nor L-e-MAPP modulated the activity of neutral or acidic sphingomyelinases | neither D- nor L-e-MAPP modulated the endogenous levels of sphingomyelin | selective increase in ceramide but not dihydroceramide levels | did not activate or modulate |
| CCCCCCCCCCCCCC(=O)N[C@@H](C)[C@H](O)c1ccccc1 [L-e-MAPP, L-erythro-2-(N-myristolyamino)-1-phenyl-1-propanol] | readily hydrolyzed by ceramidase to a level equivalent to that seen with C16 -ceramide | – | – | neither D- nor L-e-MAPP modulated the activity of neutral or acidic sphingomyelinases | neither D- nor L-e-MAPP modulated the endogenous levels of sphingomyelin | – | did not activate or modulate |
